System: IFNγ-Induced NO Production
Assay: Nitric Oxide Suppression Assay (Suppression of IFNγ-Induced NO Production)
Format: cell-based
Settings: RAW264.7; RAW 264.7 mouse macrophage cells; 2 hour pre-treatment with compound (3 μM to 0.3 nM, 10 point curve); 20 ng/mL interferon gamma, ~18 hour; Griess detection; n=2-3 in duplicates
Description: RAW 264.7, a mouse macrophage cell line, was obtained from American Type Culture Collection (Manassas Va.) and maintained in the log phase of growth in Dulbecco's Modified Eagle's Medium (DMEM), 10% heat inactivated fetal calf serum and 100 units/mL antibiotic-antimycotic (AA). Cells were cultured and maintained in a humidified incubator at 37° C. under 5% CO2 and 95% air. Cells were sub-cultured every 3 days by scraping and were not used beyond passage 20. All cell culture supplies were obtained from Life Technologies (Grand Island, N.Y.).
RAW 264.7 cells were plated 1 day in advance of experiment at a concentration of 80,000 cells/well onto CellBIND® 96 well plates (Corning, N.Y.) in a total volume of 100 μL. The next day, pre-treat cells with compounds (from 3 μM to 0.3 nM serially diluted in a 10 point curve) from a 10× stock by adding 10 μL per well in complete DMEM media containing 10% fetal calf serum. The plates were centrifuged for 3 minutes at 400×g at room temperature followed by 2 hour incubation at 37° C. The cells were then incubated overnight at 37° C. with 10 μL of the insult, interferon gamma (R&D Systems, Minneapolis, Minn.), from a 10× stock for a final concentration of 20 ng/mL. The plates were centrifuged for 3 minutes at 400×g at room temperature followed by ˜18 hour incubation at 37° C. The following day, transfer 50 μL cell culture supernatant from each well into a clear bottom 96 well plate and follow the instructions from Promega's Griess Detection Kit #G2930 (Madison, Wis.) which involves the addition of 50 μL of the provided sulfanilamide solution for a 5-10 minute incubation at room temperature. Next add 50 μL of the provided N-1-napthylethylenediamine dihydrochloride (NED) solution for a 5-10 minute incubation at room temperature and protected from light. If any air bubbles were introduced into the well, the plates need to be centrifuged for 5 minutes at 400×g at room temperature to avoid interference with absorbance readings. The plates were read for absorbance within 30 minutes with a filter between 520 nm and 550 nm.
For the ability of compounds to suppress the increase in nitric oxide release, the percent maximal intensity of nitric oxide detected in each well was normalized to that induced by the peak value for 20 ng/mL of interferon gamma alone and plotted against the compound concentration to calculate IC50 values and to control for plate-to-plate variability. Concentration-response data were analyzed using GraphPad Prism (San Diego, Calif.); the IC50 values were derived from a single curve fit to the mean data of n=2-3, in duplicates.
All compounds were dissolved in dimethyl sulfoxide at 10 mM stock solutions and tested at a concentration that the dimethyl sulfoxide levels never exceeded 1%.

Compound | IC50 [nM]
C[C@@H]1C(=O)C(C#N)=C[C@]2(c3ccccc3)c3nn(C(=O)c4cscn4)cc3CC[C@@H]12 [Example 40, (5aS,6S,9aR)-6-methyl-7-oxo-9a-phenyl-2-(1,3-thiazol-4-ylcarbonyl)-4,5,5a,6,7,9a-hexahydro-2H-benzo[g]indazole-8-carbonitrile] | 45.4
C[C@@H]1C(=O)C(C#N)=C[C@]2(c3ccccc3)c3nn(S(=O)(=O)c4ccccc4)cc3CC[C@@H]12 [Example 41, (5aS,6S,9aR)-6-methyl-7-oxo-9a-phenyl-2-(phenylsulfonyl)-4,5,5a,6,7,9a-hexahydro-2H-benzo[g]indazole-8-carbonitrile] | 1180
C[C@@H]1C(=O)C(C#N)=C[C@]2(c3ccccc3)c3nn(C(=O)CO)cc3CC[C@@H]12 [Example 42, (5aS,6S,9aR)-2-glycoloyl-6-methyl-7-oxo-9a-phenyl-4,5,5a,6,7,9a-hexahydro-2H-benzo[g]indazole-8-carbonitrile] | 34.2
COc1cccc(-c2nc(C)nc3c2CC[C@H]2[C@H](C)C(=O)C(C#N)=C[C@]32c2ccccc2)c1 [Example 43, (6aS,7S,10aR)-4-(3-methoxyphenyl)-2,7-dimethyl-8-oxo-10a-phenyl-5,6,6a,7,8,10a-hexahydrobenzo[h]quinazoline-9-carbonitrile] | 16.5
Cc1nc(-c2ccc(=O)n(C)c2)c2c(n1)[C@@]1(c3ccccc3)C=C(C#N)C(=O)[C@@H](C)[C@@H]1CC2 [Example 44, (6aS,7S,10aR)-2,7-dimethyl-4-(1-methyl-6-oxo-1,6-dihydropyridin-3-yl)-8-oxo-10a-phenyl-5,6,6a,7,8,10a-hexahydrobenzo[h]quinazoline-9-carbonitrile] | 51.1
Cc1nc(-c2ccc3ncccc3c2)c2c(n1)[C@@]1(c3ccccc3)C=C(C#N)C(=O)[C@@H](C)[C@@H]1CC2 [Example 45, (6aS,7S,10aR)-2,7-dimethyl-8-oxo-10a-phenyl-4-(quinolin-6-yl)-5,6,6a,7,8,10a-hexahydrobenzo[h]quinazoline-9-carbonitrile] | 106
CC(=O)OCCc1cccc(-c2nc(C)nc3c2CC[C@H]2[C@H](C)C(=O)C(C#N)=C[C@]32c2ccccc2)c1 [Example 46, 2-{3-[(6aS,7S,10aR)-9-cyano-2,7-dimethyl-8-oxo-10a-phenyl-5,6,6a,7,8,10a-hexahydrobenzo[h]quinazolin-4-yl]phenyl}ethyl acetate] | 7.52
Cc1nc(-c2cccc(CCO)c2)c2c(n1)[C@@]1(c3ccccc3)C=C(C#N)C(=O)[C@@H](C)[C@@H]1CC2 [Example 47, (6aS,7S,10aR)-4-[3-(2-hydroxyethyl)phenyl]-2,7-dimethyl-8-oxo-10a-phenyl-5,6,6a,7,8,10a-hexahydrobenzo[h]quinazoline-9-carbonitrile] | 18.8
C[C@@H]1C(=O)C(C#N)=C[C@]2(c3ccccc3)c3nn(C(=O)Nc4cccnc4)cc3CC[C@@H]12 [Example 48, (5aS,6S,9aR)-8-cyano-6-methyl-7-oxo-9a-phenyl-N-(pyridin-3-yl)-4,5,5a,6,7,9a-hexahydro-2H-benzo[g]indazole-2-carboxamide] | 40.1
C[C@@H]1C(=O)C(C#N)=C[C@]2(c3ccccc3)c3nc(-c4cncnc4)ncc3CC[C@@H]12 [Example 49, (6aS,7S,10aR)-7-methyl-8-oxo-10a-phenyl-2-(pyrimidin-5-yl)-5,6,6a,7,8,10a-hexahydrobenzo[h]quinazoline-9-carbonitrile] | 7.15
C[C@@H]1C(=O)C(C#N)=C[C@]2(c3ccc(F)cc3)c3ncncc3CC[C@@H]12 [Example 50, (6aS,7S,10aR)-10a-(4-fluorophenyl)-7-methyl-8-oxo-5,6,6a,7,8,10a-hexahydrobenzo[h]quinazoline-9-carbonitrile] | 10.3
C[C@@H]1C(=O)C(C#N)=C[C@]2(c3ccc(F)cc3)c3nc(-c4cccnc4)ncc3CC[C@@H]12 [Example 51, (6aS,7S,10aR)-10a-(4-fluorophenyl)-7-methyl-8-oxo-2-(pyridin-3-yl)-5,6,6a,7,8,10a-hexahydrobenzo[h]quinazoline-9-carbonitrile] | 6.14
C[C@@H]1C(=O)C(C#N)=C[C@]2(c3ccccc3)c3nn(C)cc3CC[C@@H]12 [Example 52, (5aS,6S,9aR)-2,6-dimethyl-7-oxo-9a-phenyl-4,5,5a,6,7,9a-hexahydro-2H-benzo[g]indazole-8-carbonitrile] | 53.2
C[C@@H]1C(=O)C(C#N)=C[C@]2(c3cccc(F)c3)c3n[nH]cc3CC[C@@H]12 [Example 53, (5aS,6S,9aR)-9a-(3-fluorophenyl)-6-methyl-7-oxo-4,5,5a,6,7,9a-hexahydro-2H-benzo[g]indazole-8-carbonitrile] | 31.7
C[C@@H]1C(=O)C(C#N)=C[C@]2(c3ccc(F)cc3)c3n[nH]cc3CC[C@@H]12 [Example 54, (5aS,6S,9aR)-9a-(4-fluorophenyl)-6-methyl-7-oxo-4,5,5a,6,7,9a-hexahydro-2H-benzo[g]indazole-8-carbonitrile] | 35.5
C[C@@H]1C(=O)C(C#N)=C[C@]2(c3cccc(F)c3)c3ncncc3CC[C@@H]12 [Example 55, (6aS,7S,10aR)-10a-(3-fluorophenyl)-7-methyl-8-oxo-5,6,6a,7,8,10a-hexahydrobenzo[h]quinazoline-9-carbonitrile] | 11.4
COc1ccc([C@]23C=C(C#N)C(=O)[C@@H](C)[C@@H]2CCc2c[nH]nc23)cc1 [Example 58, (5aS,6S,9aR)-9a-(4-methoxyphenyl)-6-methyl-7-oxo-4,5,5a,6,7,9a-hexahydro-2H-benzo[g]indazole-8-carbonitrile] | 33.4
COC(=O)c1cccc([C@]23C=C(C#N)C(=O)[C@@H](C)[C@@H]2CCc2cncnc23)c1 [Example 59, methyl 3-[(6aS,7S,10aR)-9-cyano-7-methyl-8-oxo-6,6a,7,8-tetrahydrobenzo[h]quinazolin-10a(5H)-yl]benzoate] | 6.53
C[C@@H]1C(=O)C(C#N)=C[C@]2(c3cccc(C(=O)O)c3)c3ncncc3CC[C@@H]12 [Example 60, 3-[(6aS,7S,10aR)-9-cyano-7-methyl-8-oxo-6,6a,7,8-tetrahydrobenzo[h]quinazolin-10a(5H)-yl]benzoic acid] | > 3000
C[C@@H]1C(=O)C(C#N)=C[C@]2(c3cccc(C(N)=O)c3)c3ncncc3CC[C@@H]12 [Example 61, 3-[(6aS,7S,10aR)-9-cyano-7-methyl-8-oxo-6,6a,7,8-tetrahydrobenzo[h]quinazolin-10a(5H)-yl]benzamide] | 591
COC(=O)c1cccc([C@]23C=C(C#N)C(=O)[C@@H](C)[C@@H]2CCc2c[nH]nc23)c1 [Example 62, methyl 3-[(5aS,6S,9aR)-8-cyano-6-methyl-7-oxo-2,4,5,5a,6,7-hexahydro-9aH-benzo[g]indazol-9a-yl]benzoate] | 39.4
COC(=O)c1ccc([C@]23C=C(C#N)C(=O)[C@@H](C)[C@@H]2CCc2c[nH]nc23)cc1 [Example 63, methyl 4-[(5aS,6S,9aR)-8-cyano-6-methyl-7-oxo-2,4,5,5a,6,7-hexahydro-9aH-benzo[g]indazol-9a-yl]benzoate] | 26.6
COC(=O)c1ccc([C@]23C=C(C#N)C(=O)[C@@H](C)[C@@H]2CCc2cncnc23)cc1 [Example 64, methyl 4-[(6aS,7S,10aR)-9-cyano-7-methyl-8-oxo-6,6a,7,8-tetrahydrobenzo[h]quinazolin-10a(5H)-yl]benzoate] | 11
C[C@@H]1C(=O)C(C#N)=C[C@]2(c3ccccc3)c3c(cnn3Cc3ccc(Br)cc3)CC[C@@H]12 [Example 65, (5aS,6S,9aR)-1-(4-bromobenzyl)-6-methyl-7-oxo-9a-phenyl-4,5,5a,6,7,9a-hexahydro-1H-benzo[g]indazole-8-carbonitrile] | 109
C[C@@H]1C(=O)C(C#N)=C[C@]2(c3ccc(C(=O)O)cc3)c3ncncc3CC[C@@H]12 [Example 66, 4-[(6aS,7S,10aR)-9-cyano-7-methyl-8-oxo-6,6a,7,8-tetrahydrobenzo[h]quinazolin-10a(5H)-yl]benzoic acid] | 809
COc1ccc([C@]23C=C(C#N)C(=O)[C@@H](C)[C@@H]2CCc2c(-c4cncnc4)nc(C)nc23)cc1 [Example 67, (6aS,7S,10aR)-10a-(4-methoxyphenyl)-2,7-dimethyl-8-oxo-4-(pyrimidin-5-yl)-5,6,6a,7,8,10a-hexahydrobenzo[h]quinazoline-9-carbonitrile] | 21.8
